From patent US7495017B2, “Phosphodiesterase 4 inhibitors” (Memory Pharmaceuticals Corporation, priority 2003, dated 2009)

melting point: 149 to 151 °C
Structure (SMILES): COc1ccc(-c2ccn[nH]2)cc1O[C@@H]1CCOC1 [Example 1B, 3-[4-Methoxy-3-(3R)-tetrahydrofuranyloxyphenyl]-1H-pyrazole]
